The source made the active and inactive calls. The rule behind the calls is not given here.
Tested on: rodent carcinogenicity bioassays, tumor incidence
Experiment: CCRIS carcinogenicity studies
In short: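 NCI-built, expert-reviewed records of carcinogenicity and related test outcomes (mutagenicity, tumor promotion/inhibition) compiled from published and report sources, historical span 1985-2011, not updated.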

CN(CCC#N)N=O
carcinogen call (Species: RAT, Strain/Sex: F344/FEMALE, Route: SUBCUTANEOUS, Dose: 0, 0.019 MMOL 3/WK FOR 20 WK (STUDY DURATION: 24 WK), Tumor Site: Type of Lesion: ESOPHAGUS: PAPILLOMA, NASAL CAVITY: PAPILLOMA, TONGUE: PAPILLOMA OR CARCINOMA, Tumor Site: Type of Lesion: ESOPHAGUS: PAPILLOMA, NASAL CAVITY: PAPILLOMA, TONGUE: PAPILLOMA OR CARCINOMA): active; positive | carcinogen call (Species: RAT, Strain/Sex: F344/MALE, FEMALE, Route: SUBCUTANEOUS, Dose: 0, 2.13 MG IN 0.3 ML SALINE 3/WK FOR 20 WK (TOTAL DOSE 127.8 MG) (STUDY DURATION: 24 WK), Tumor Site: Type of Lesion: ESOPHAGUS: SQUAMOUS CELL PAPILLOMA, SQUAMOUS CELL CARCINOMA, TONGUE: PAPILLOMA, CARCINOMA, NASAL CAVITY: PAPILLOMA, ESTH, Tumor Site: Type of Lesion: ESOPHAGUS: SQUAMOUS CELL PAPILLOMA, SQUAMOUS CELL CARCINOMA, TONGUE: PAPILLOMA, CARCINOMA, NASAL CAVITY: PAPILLOMA, ESTH): active; positive | carcinogen call (Species: RAT, Strain/Sex: F344/MALE,FEMALE, Route: SUBCUTANEOUS, Dose: 2.13 MG 3/WK FOR 20 WK (TOTAL DOSE 129 MG), Tumor Site: Type of Lesion: ESOPHAGUS: PAPILLOMA, CARCINOMA, NASAL CAVITY: PAPILLOMA, TONGUE: PAPILLOMA, CARCINOMA, Tumor Site: Type of Lesion: ESOPHAGUS: PAPILLOMA, CARCINOMA, NASAL CAVITY: PAPILLOMA, TONGUE: PAPILLOMA, CARCINOMA): active; positive | carcinogen call (Species: RAT, Strain/Sex: F344/MALE, Route: MUCOUS MEMBRANE, Dose: 0, 0.3 ML OF A 15 MMOL WATER SOLUTION 1/D 3 D/WK FOR 1 WK THEN 1/D 5 D/WK FOR WK 2-4 THEN 2/D 5 D/WK FOR WK 5-6 (STUDY D, Tumor Site: Type of Lesion: NASAL CAVITY: CARCINOMA, PAPILLOMA, ADENOMA, LUNG: ADENOCARCINOMA, ADENOMA, LIVER: CARCINOMA, ADENOMA, ESOPHAGUS: PAPILL, Tumor Site: Type of Lesion: NASAL CAVITY: CARCINOMA, PAPILLOMA, ADENOMA, LUNG: ADENOCARCINOMA, ADENOMA, LIVER: CARCINOMA, ADENOMA, ESOPHAGUS: PAPILL): active; positive | carcinogen call (Species: RAT, Strain/Sex: F344/MALE, Route: SUBCUTANEOUS, Dose: 0, 0.019 MMOL 3/WK FOR 20 WK (STUDY DURATION: 24 WK), Tumor Site: Type of Lesion: ESOPHAGUS: PAPILLOMA, NASAL CAVITY: PAPILLOMA, TONGUE: PAPILLOMA OR CARCINOMA, Tumor Site: Type of Lesion: ESOPHAGUS: PAPILLOMA, NASAL CAVITY: PAPILLOMA, TONGUE: PAPILLOMA OR CARCINOMA): active; positive

CC(=O)OC1CC(C)OC(C)O1 (stereo not given)
carcinogen call (Species: MOUSE, Strain/Sex: B6C3F1/FEMALE, Route: GAVAGE, Dose: 0, 250, 500 MG/KG IN CORN OIL 5 D/WK FOR 103 WK (STUDY DURATION: 105 WK), Dose: 0, 250, 500 MG/KG IN CORN OIL 5 D/WK FOR 103 WK (STUDY DURATION: 105 WK)): inactive; negative | carcinogen call (Species: MOUSE, Strain/Sex: B6C3F1/MALE, Route: GAVAGE, Dose: 0, 250, 500 MG/KG IN CORN OIL 5 D/WK FOR 103 WK (STUDY DURATION: 105 WK), Dose: 0, 250, 500 MG/KG IN CORN OIL 5 D/WK FOR 103 WK (STUDY DURATION: 105 WK), Tumor Site: Type of Lesion: FORESTOMACH: SQUAMOUS PAPILLOMA OR SQUAMOUS CELL CARCINOMA): equivocal | carcinogen call (Species: RAT, Route: ORAL, Tumor Site: Type of Lesion: LIVER): active; positive | carcinogen call (Species: RAT, Strain/Sex: F344/FEMALE, Route: GAVAGE, Dose: 0, 125, 250 MG/KG IN CORN OIL 5 D/WK FOR 103 WK (STUDY DURATION: 105 WK), Dose: 0, 125, 250 MG/KG IN CORN OIL 5 D/WK FOR 103 WK (STUDY DURATION: 105 WK)): inactive; negative | carcinogen call (Species: RAT, Strain/Sex: F344/MALE, Route: GAVAGE, Dose: 0, 62.5, 125 MG/KG IN CORN OIL 5 D/WK FOR 103 WK (STUDY DURATION: 105 WK), Dose: 0, 62.5, 125 MG/KG IN CORN OIL 5 D/WK FOR 103 WK (STUDY DURATION: 105 WK)): inactive; negative

Cn1c(NO)nc2ncc(-c3ccccc3)cc21
carcinogen call (Species: RAT, Strain/Sex: ACI/SEG/MALE, Route: INTRAPERITONEAL, Dose: 0, 50 UMOL/KG BW 2X/WK FOR 10 WK BEGINNING AT 3 D OF AGE (STUDY DURATION: 68 WK)): inactive; negative

CCNC(=O)Nc1ncc([N+](=O)[O-])s1
carcinogen call (Species: MOUSE, Strain/Sex: B6C3F1/FEMALE, Route: ORAL, Dose: 0, 2500, 5000 PPM IN DIET FOR 94 WK (STUDY DURATION: 104 WK), Dose: 0, 2500, 5000 PPM IN DIET FOR 94 WK (STUDY DURATION: 104 WK), Tumor Site: Type of Lesion: LIVER: HEPATOCELLULAR ADENOMA OR CARCINOMA): equivocal | carcinogen call (Species: MOUSE, Strain/Sex: B6C3F1/MALE, Route: ORAL, Dose: 0, 2500, 5000 PPM IN DIET FOR 94 WK (STUDY DURATION: 104 WK), Dose: 0, 2500, 5000 PPM IN DIET FOR 94 WK (STUDY DURATION: 104 WK), Tumor Site: Type of Lesion: LIVER: HEPATOCELLULAR CARCINOMA OR ADENOMA): active; positive | carcinogen call (Species: RAT, Strain/Sex: F344/FEMALE, Route: ORAL, Dose: 0, 625, 1250 PPM IN DIET FOR 94 WK (STUDY DURATION: 104 WK), Dose: 0, 625, 1250 PPM IN DIET FOR 94 WK (STUDY DURATION: 104 WK), Tumor Site: Type of Lesion: INTEGUMENTARY SYSTEM (SKIN AND SUBCUTANEOUS TISSUE) AND MAMMARY GLAND: FIBROADENOMA OR CYSTADENOMA (NOS)): active; positive | carcinogen call (Species: RAT, Strain/Sex: F344/MALE, Route: ORAL, Dose: 0, 625, 1250 PPM IN DIET FOR 94 WK (STUDY DURATION: 104 WK), Dose: 0, 625, 1250 PPM IN DIET FOR 94 WK (STUDY DURATION: 104 WK)): inactive; negative

Source: PubChem BioAssay AID1259411 (Chemical Carcinogenesis Research Information System (CCRIS), 2018)
